ChEMBL document CHEMBL3813594, “Design and structure-activity relationships of novel inhibitors of human rhinovirus 3C protease” (Bioorg Med Chem Lett, 2016)

Tests used:
[1] = test system: rhinovirus A16; assay: Antiviral activity against human rhinovirus 16 assessed as reduction in viral infection in human HeLa H1 cells pretreated for 1 to 2 hrs with virus followed by cell addition measured after 48 hrs by Celltiter-Glo reagent based assay; format: functional, organism-based
[2] = test system: rhinovirus A85; assay: Antiviral activity against human rhinovirus 85 assessed as reduction in viral infection in human HeLa H1 cells pretreated for 1 to 2 hrs with virus followed by cell addition measured after 48 hrs by Celltiter-Glo reagent based assay; format: functional, organism-based; conditions: Rhinovirus A
[3] = Antiviral activity against human rhinovirus 100 assessed as reduction in viral infection in human HeLa H1 cells pretreated for 1 to 2 hrs with virus followed by cell addition measured after 48 hrs by Celltiter-Glo reagent based assay; format: functional, Human rhinovirus A100; conditions: Rhinovirus A
[4] = Antiviral activity against human rhinovirus 8 assessed as reduction in viral infection in human HeLa H1 cells pretreated for 1 to 2 hrs with virus followed by cell addition measured after 48 hrs by Celltiter-Glo reagent based assay; format: functional, Human rhinovirus A8; conditions: Rhinovirus A
[5] = Antiviral activity against human rhinovirus 7 assessed as reduction in viral infection in human HeLa H1 cells pretreated for 1 to 2 hrs with virus followed by cell addition measured after 48 hrs by Celltiter-Glo reagent based assay; format: functional, Human rhinovirus A7; conditions: Rhinovirus A
[6] = test system: rhinovirus A25; assay: Antiviral activity against human rhinovirus 25 assessed as reduction in viral infection in human HeLa H1 cells pretreated for 1 to 2 hrs with virus followed by cell addition measured after 48 hrs by Celltiter-Glo reagent based assay; format: functional, organism-based; conditions: Rhinovirus A
[7] = test system: rhinovirus A2; assay: Antiviral activity against human rhinovirus 2 assessed as reduction in viral infection in human HeLa H1 cells pretreated for 1 to 2 hrs with virus followed by cell addition measured after 48 hrs by Celltiter-Glo reagent based assay; format: functional, organism-based
[8] = Antiviral activity against human rhinovirus 17 assessed as reduction in viral infection in human HeLa H1 cells pretreated for 1 to 2 hrs with virus followed by cell addition measured after 48 hrs by Celltiter-Glo reagent based assay; format: functional, Human rhinovirus B17
[9] = test system: rhinovirus B14; assay: Antiviral activity against human rhinovirus 14 assessed as reduction in viral infection in human HeLa H1 cells pretreated for 1 to 2 hrs with virus followed by cell addition measured after 48 hrs by Celltiter-Glo reagent based assay; format: functional, organism-based; conditions: Rhinovirus B
[10] = test system: rhinovirus A41; assay: Antiviral activity against human rhinovirus 41 assessed as reduction in viral infection in human HeLa H1 cells pretreated for 1 to 2 hrs with virus followed by cell addition measured after 48 hrs by Celltiter-Glo reagent based assay; format: functional, organism-based; conditions: Rhinovirus A
[11] = test system: rhinovirus A16; assay: Antiviral activity against human rhinovirus 16 assessed as reduction in viral infection in human HeLa H1 cells after 2 to 5 days by XTT reduction assay; format: functional, organism-based; conditions: Rhinovirus A
[12] = Antiviral activity against human rhinovirus 17 assessed as reduction in viral infection in human HeLa H1 cells after 2 to 5 days by XTT reduction assay; format: functional, cell-based, Human rhinovirus B17; conditions: Rhinovirus B
[13] = test system: rhinovirus A2; assay: Antiviral activity against human rhinovirus 2 assessed as reduction in viral infection in human HeLa H1 cells after 2 to 5 days by XTT reduction assay; format: functional, organism-based; conditions: Rhinovirus A

Row | Structure (SMILES) | EC50 ([1]; Rhinovirus A, HeLa H1) | EC50 [2] | EC50 [3] | EC50 [4] | EC50 [5] | EC50 [6] | EC50 ([7]; Rhinovirus A, HeLa H1) | EC50 ([8]; Rhinovirus B, HeLa H1) | EC50 [9] | EC50 [10] | EC50 ([1]; hela h1) | EC50 ([7]; hela h1) | EC50 ([8]; hela h1) | EC50 [11] | EC50 [12] | EC50 [13]
1 | CCOC(=O)/C=C/[C@H](C[C@@H]1CCNC1=O)NC(=O)[C@@H]1CCCN1C(=O)[C@@H](NC(=O)c1cc(C)on1)C(C)C | 400 nM | 4200 nM | 1800 nM | 590 nM | 1300 nM | 1890 nM | 1390 nM | 230 nM | 470 nM | 1450 nM | – | – | – | – | – | –
2 | CCOC(=O)/C=C/[C@H](C[C@@H]1CCNC1=O)NC(=O)[C@@H]1CC[C@@H](c2ccccc2)N1C(=O)[C@@H](NC(=O)c1cc(C)on1)C(C)C | 260 nM | – | – | – | – | – | 1900 nM | 150 nM | – | – | – | – | – | – | – | –
3 | CCOC(=O)/C=C/[C@H](C[C@@H]1CCNC1=O)NC(=O)[C@@H]1[C@@H](c2ccccc2)CN1C(=O)[C@@H](NC(=O)c1cc(C)on1)C(C)C (stereo in doubt; 11) | – | – | – | – | – | – | – | – | – | – | > 50000 nM | > 50000 nM | > 50000 nM | – | – | –
4 | CCOC(=O)/C=C/[C@H](C[C@@H]1CCNC1=O)NC(=O)[C@@H]1[C@@H](c2ccccc2)CN1C(=O)[C@@H](NC(=O)c1cc(C)on1)C(C)C (stereo in doubt; 10) | – | 1140 nM | 470 nM | 170 nM | 420 nM | 100 nM | – | – | 91 nM | 530 nM | 300 nM | 300 nM | 90 nM | – | – | –
5 | CCOC(=O)/C=C/[C@H](C[C@@H]1CCNC1=O)NC(=O)[C@@H]1C[C@@H](CC#N)CN1C(=O)[C@@H](NC(=O)c1cc(C)on1)C(C)C | 199 nM | – | – | – | – | – | 430 nM | 500 nM | – | – | – | – | – | – | – | –
6 | CCOC(=O)/C=C/[C@H](C[C@@H]1CCNC1=O)NC(=O)[C@@H]1C[C@@H](Oc2ccccc2)CN1C(=O)[C@@H](NC(=O)c1cc(C)on1)C(C)C | 59 nM | – | – | – | – | – | 270 nM | 260 nM | – | – | – | – | – | – | – | –
7 | CCOC(=O)/C=C/[C@H](C[C@@H]1CCNC1=O)NC(=O)[C@@H](CC(=O)[C@@H](NC(=O)c1cc(C)on1)C(C)C)Cc1ccc(F)cc1 [RUPINTRIVIR] | – | – | – | – | – | – | – | – | – | – | – | – | – | 14 nM | 14 nM | 12 nM
8 | CCOC(=O)/C=C/[C@H](C[C@@H]1CCNC1=O)NC(=O)[C@@H]1[C@@H](c2ccccc2)CCN1C(=O)[C@@H](NC(=O)c1cc(C)on1)C(C)C | 3000 nM | 9300 nM | 6500 nM | 3500 nM | 8300 nM | 4500 nM | 8400 nM | 700 nM | 2500 nM | 4500 nM | – | – | – | – | – | –
9 | CCOC(=O)/C=C/[C@H](C[C@@H]1CCNC1=O)NC(=O)[C@@H]1C[C@@H](Cc2ccccc2)CN1C(=O)[C@@H](NC(=O)c1cc(C)on1)C(C)C | 47 nM | – | – | – | – | – | 300 nM | 190 nM | – | – | – | – | – | – | – | –
10 | CCOC(=O)/C=C/[C@H](C[C@@H]1CCNC1=O)NC(=O)[C@@H]1C[C@@H](c2ccccc2)CN1C(=O)[C@@H](NC(=O)c1cc(C)on1)C(C)C | 24 nM | 250 nM | 110 nM | 37 nM | 81 nM | 19 nM | 140 nM | 11 nM | 13 nM | 130 nM | – | – | – | – | – | –
11 | CCOC(=O)/C=C/[C@H](C[C@@H]1CCNC1=O)NC(=O)[C@@H]1C[C@@H](C2CCCCC2)CN1C(=O)[C@@H](NC(=O)c1cc(C)on1)C(C)C | 15 nM | 94 nM | 80 nM | 22 nM | 47 nM | 9 nM | 46 nM | 7 nM | 11 nM | 90 nM | – | – | – | – | – | –
